Assay [1] concerns the target T1, Cyclin-dependent kinase 7 (Homo sapiens, UniProt P50613). The experiment in a line: Fluorescent end-point assay ( KM ATP app ~30 µM). It is filed as functional.
Assay [2] addresses T1, Cyclin-dependent kinase 7. The experiment in a line: In vitro pharmacodynamics: p-RNA pol II Ser-5 (wtCDK7) ( QuantiGene Plex Gene Expression Assay: downregulation at the messenger level of superenhancer driven genes. The level of phosphorylation of Serine 5 on RNA pol II Vs totalRNA pol II is determined. The level of p-RNA pol II Ser-5 detected and stained with primary (a specific rabbit Phospho-Rpb1 CTD (Ser5) antibody) and secondary antibodies (a goat anti rabbit Alexa Fluor 488 conjugated secondary antibody) after 3 hrs incubation with probe.). It is filed as functional.

The target of assay [3] is Cyclin-dependent kinase 7 (Homo sapiens, UniProt P50613, C312S). The assay can be described thus: In vitro pharmacodynamics: p-RNA pol II Ser-5 (CDK7 C312S) ( QuantiGene Plex Gene Expression Assay: downregulation at the messenger level of superenhancer driven genes. The level of phosphorylation of Serine 5 on RNA pol II Vs totalRNA pol II is determined. The level of p-RNA pol II Ser-5 detected and stained with primary (a specific rabbit Phospho-Rpb1 CTD (Ser5) antibody) and secondary antibodies (a goat anti rabbit Alexa Fluor 488 conjugated secondary antibody) after 3 hrs incubation with probe.). It is filed as functional.
Sequence of Cyclin-dependent kinase 7 (Homo sapiens, UniProt P50613, C312S) (P50613 2-346 C312S limits assumed): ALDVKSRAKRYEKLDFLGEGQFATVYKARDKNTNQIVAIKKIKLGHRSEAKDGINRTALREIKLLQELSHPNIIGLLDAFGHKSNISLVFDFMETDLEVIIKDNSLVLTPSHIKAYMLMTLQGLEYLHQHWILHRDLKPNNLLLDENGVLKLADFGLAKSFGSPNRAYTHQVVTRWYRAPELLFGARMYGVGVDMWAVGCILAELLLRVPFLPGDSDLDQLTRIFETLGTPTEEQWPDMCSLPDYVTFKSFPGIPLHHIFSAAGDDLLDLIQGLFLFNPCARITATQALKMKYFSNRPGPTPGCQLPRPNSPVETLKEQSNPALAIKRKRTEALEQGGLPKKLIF

Assay [4] addresses T1, Cyclin-dependent kinase 7. The experiment in a line: Inhibition of CDK7 at 1.0 µM in the ActivX. The note with it: Compound concentration 1.0 uM.
The target in assay [5] is Cyclin-dependent kinase 5 (Homo sapiens) (UniProt Q00535). The experiment in a line: Inhibition of CDK5 at 1.0 µM in the ActivX. As to conditions: Compound concentration 1.0 uM.
Assay [6] has as its target T2, Cyclin-dependent kinase 9 (Homo sapiens, UniProt P50750). The assay can be described thus: Inhibition of CDK9 at 1.0 µM in the ActivX. The note with it: Compound concentration 1.0 uM.
Assay [7] concerns the target Cyclin-dependent kinase 2 (Homo sapiens) (UniProt P24941). The experiment in a line: % inhibition of CDK2 in the DiscoverX Kinase panel at 1.0 µM. The note with it: Compound concentration 1.0 uM.
For assay [8], the target named is Calcium/calmodulin-dependent protein kinase kinase 2 (Homo sapiens) (UniProt Q96RR4). The experiment in a line: Inhibition of CAMKK2 at 1.0 µM in the ActivX. The note with it: Compound concentration 1.0 uM.
Assay [9] addresses Cyclin-dependent kinase 16 (Homo sapiens) (UniProt Q00536). The assay can be described thus: Inhibition of CDK16 at 1.0 µM in the ActivX. As to conditions: Compound concentration 1.0 uM.
For assay [10], the target named is Cyclin-dependent kinase 18 (Homo sapiens) (UniProt Q07002). The assay can be described thus: % inhibition of CDK18 in the DiscoverX Kinase panel at 1.0 µM. As to conditions: Compound concentration 1.0 uM.
In assay [11] the target is Cyclin-dependent kinase 4 (Homo sapiens) (UniProt P11802). The experiment in a line: Inhibition of CDK4 at 1.0 µM in the ActivX. The note with it: Compound concentration 1.0 uM.
Sequence of Cyclin-dependent kinase 4 (Homo sapiens) (P11802 whole entry): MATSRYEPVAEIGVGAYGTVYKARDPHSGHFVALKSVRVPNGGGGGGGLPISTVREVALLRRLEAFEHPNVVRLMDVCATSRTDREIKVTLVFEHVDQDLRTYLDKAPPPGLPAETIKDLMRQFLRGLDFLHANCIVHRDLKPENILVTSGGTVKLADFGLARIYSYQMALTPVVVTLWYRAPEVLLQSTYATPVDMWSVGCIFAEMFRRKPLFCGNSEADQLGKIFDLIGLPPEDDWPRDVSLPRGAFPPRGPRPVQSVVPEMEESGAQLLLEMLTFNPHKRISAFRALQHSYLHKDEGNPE
Assay [12] deals with Cyclin-dependent kinase 11B (Homo sapiens) (UniProt P21127). The experiment in a line: % inhibition of CDK11b in the DiscoverX Kinase panel at 1.0 µM. As to conditions: Compound concentration 1.0 uM.
In assay [13] the target is Cyclin-dependent kinase 15 (Homo sapiens) (UniProt Q96Q40). The assay can be described thus: Inhibition of CDK15 at 1.0 µM in the ActivX. As to conditions: Compound concentration 1.0 uM.
Sequence of Cyclin-dependent kinase 15 (Homo sapiens) (Q96Q40 whole entry): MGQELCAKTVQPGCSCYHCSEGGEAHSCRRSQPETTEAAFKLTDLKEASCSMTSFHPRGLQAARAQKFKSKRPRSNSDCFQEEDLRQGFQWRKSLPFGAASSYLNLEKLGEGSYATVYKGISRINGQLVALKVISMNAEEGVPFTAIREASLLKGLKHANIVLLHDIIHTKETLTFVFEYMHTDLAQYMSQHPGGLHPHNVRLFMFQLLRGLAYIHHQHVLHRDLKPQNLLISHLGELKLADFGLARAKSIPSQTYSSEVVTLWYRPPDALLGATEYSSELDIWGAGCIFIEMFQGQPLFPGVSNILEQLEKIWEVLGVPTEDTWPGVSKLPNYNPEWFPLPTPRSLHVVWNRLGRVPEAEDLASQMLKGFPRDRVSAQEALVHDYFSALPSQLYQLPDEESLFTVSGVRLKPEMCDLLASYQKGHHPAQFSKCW
Assay [14] concerns the target Cyclin-dependent kinase 12 (Homo sapiens) (UniProt Q9NYV4). The assay can be described thus: Inhibition of CDK12 at 1.0 µM in the ActivX. The note with it: Compound concentration 1.0 uM.
The target of assay [15] is T3, Cyclin-dependent kinase 11A/B (Homo sapiens) (UniProt Q9UQ88+P21127). The experiment in a line: Inhibition of CDK11 at 1.0 µM in the ActivX. Format: protein assay. The note with it: Compound concentration 1.0 uM.
Assay [16] deals with Cyclin-dependent kinase 1 (Homo sapiens) (UniProt P06493). The experiment in a line: Inhibition of CDK1 at 1.0 µM in the ActivX. The note with it: Compound concentration 1.0 uM.
For assay [17], the target named is Cyclin-dependent kinase 2 (Homo sapiens) (UniProt P24941). The experiment in a line: Inhibition of CDK2 at 1.0 µM in the ActivX. As to conditions: Compound concentration 1.0 uM.
The target of assay [18] is Cyclin-dependent kinase 15 (Homo sapiens) (UniProt Q96Q40). The assay can be described thus: % inhibition of CDK15 in the DiscoverX Kinase panel at 1.0 µM. As to conditions: Compound concentration 1.0 uM.
Assay [19] deals with Serine/threonine-protein kinase 16 (Homo sapiens) (UniProt O75716). The assay can be described thus: Inhibition of MPSK1 at 1.0 µM in the ActivX. The note with it: Compound concentration 1.0 uM.
Assay [20] has as its target Cyclin-dependent kinase 14 (Homo sapiens) (UniProt O94921). The experiment in a line: % inhibition of CDK14 in the DiscoverX Kinase panel at 1.0 µM. As to conditions: Compound concentration 1.0 uM.
For assay [21], the target named is Cyclin-dependent kinase 5 (Homo sapiens) (UniProt Q00535). The experiment in a line: % inhibition of CDK5 in the DiscoverX Kinase panel at 1.0 µM. As to conditions: Compound concentration 1.0 uM.
Assay [22] concerns the target Cyclin-dependent kinase 17 (Homo sapiens) (UniProt Q00537). The experiment in a line: Inhibition of CDK17 at 1.0 µM in the ActivX. As to conditions: Compound concentration 1.0 uM.
For assay [23], the target named is Cyclin-dependent kinase 11B (Homo sapiens) (UniProt P21127). The assay can be described thus: Inhibition of CDK11b at 1.0 µM in the ActivX. As to conditions: Compound concentration 1.0 uM.
Assay [24] has as its target Cyclin-dependent kinase 16 (Homo sapiens) (UniProt Q00536). The experiment in a line: % inhibition of CDK16 in the DiscoverX Kinase panel at 1.0 µM. The note with it: Compound concentration 1.0 uM.
Assay [25] has as its target T2, Cyclin-dependent kinase 9. The assay can be described thus: % inhibition of CDK9 in the DiscoverX Kinase panel at 1.0 µM.
The target in assay [26] is Cyclin-dependent kinase 13 (Homo sapiens) (UniProt Q14004). The assay can be described thus: % inhibition of CDK13 in the DiscoverX Kinase panel at 1.0 µM. The note with it: Compound concentration 1.0 uM.
Sequence of Cyclin-dependent kinase 13 (Homo sapiens) (Q14004 whole entry, looked up): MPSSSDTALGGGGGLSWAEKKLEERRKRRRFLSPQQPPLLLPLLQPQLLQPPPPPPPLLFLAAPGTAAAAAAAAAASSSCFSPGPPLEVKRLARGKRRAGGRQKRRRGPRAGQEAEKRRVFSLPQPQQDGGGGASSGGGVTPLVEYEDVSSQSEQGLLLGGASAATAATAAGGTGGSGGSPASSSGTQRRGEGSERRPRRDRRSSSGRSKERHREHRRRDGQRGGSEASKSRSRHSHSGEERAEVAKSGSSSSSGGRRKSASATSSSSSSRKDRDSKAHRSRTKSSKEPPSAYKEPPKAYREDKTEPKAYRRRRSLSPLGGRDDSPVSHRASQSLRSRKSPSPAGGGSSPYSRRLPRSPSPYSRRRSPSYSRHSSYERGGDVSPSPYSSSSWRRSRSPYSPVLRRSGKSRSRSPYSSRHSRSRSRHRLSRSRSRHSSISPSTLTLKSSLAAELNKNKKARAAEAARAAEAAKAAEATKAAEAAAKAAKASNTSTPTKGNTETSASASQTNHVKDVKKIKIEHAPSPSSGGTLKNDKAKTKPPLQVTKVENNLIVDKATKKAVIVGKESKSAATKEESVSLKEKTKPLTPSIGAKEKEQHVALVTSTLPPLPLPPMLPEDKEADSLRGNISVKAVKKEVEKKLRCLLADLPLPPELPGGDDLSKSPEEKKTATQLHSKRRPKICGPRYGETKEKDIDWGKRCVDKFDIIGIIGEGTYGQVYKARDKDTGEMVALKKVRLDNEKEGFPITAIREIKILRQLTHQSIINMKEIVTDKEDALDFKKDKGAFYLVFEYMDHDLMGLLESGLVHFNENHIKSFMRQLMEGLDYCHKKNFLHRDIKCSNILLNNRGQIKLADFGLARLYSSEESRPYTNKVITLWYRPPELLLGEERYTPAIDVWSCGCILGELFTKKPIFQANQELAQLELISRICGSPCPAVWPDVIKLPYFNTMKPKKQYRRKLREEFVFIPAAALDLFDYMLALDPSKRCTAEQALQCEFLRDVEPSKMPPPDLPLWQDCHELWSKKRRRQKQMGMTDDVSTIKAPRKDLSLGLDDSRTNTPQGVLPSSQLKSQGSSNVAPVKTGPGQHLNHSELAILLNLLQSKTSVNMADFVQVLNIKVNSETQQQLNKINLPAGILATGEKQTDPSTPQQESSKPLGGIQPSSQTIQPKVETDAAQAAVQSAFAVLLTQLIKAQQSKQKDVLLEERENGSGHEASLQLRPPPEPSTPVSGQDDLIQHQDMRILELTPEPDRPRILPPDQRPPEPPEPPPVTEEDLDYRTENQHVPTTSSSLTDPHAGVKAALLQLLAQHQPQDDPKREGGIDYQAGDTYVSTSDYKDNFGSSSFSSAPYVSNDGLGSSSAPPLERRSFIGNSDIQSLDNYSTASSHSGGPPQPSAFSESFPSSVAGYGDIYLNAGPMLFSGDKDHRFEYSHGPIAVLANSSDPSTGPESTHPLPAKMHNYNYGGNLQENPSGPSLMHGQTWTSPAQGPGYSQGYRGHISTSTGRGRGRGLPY
For assay [27], the target named is T4, CDK7/Cyclin H/MNAT1 (Homo sapiens) (UniProt P51946+P50613+P51948). The experiment in a line: Biochemical CDK7 assay (KIapp) ( CDK7 catalyzed, ATP-dependent, phosphorylation of a peptide substrate derived from RNA Pol II (CDK7/9-tide). Coupled via lactate dehydrogenase (LDH) and pyruvate kinase (PK) to lactate and NAD+ production, with concomitant depletion of NADH. Continuous coupled assay measures CDK7 catalytic activity through the diminished absorbance intensity at 340 nm that corresponds with NADH depletion.). Format: functional.

The target in assay [28] is T4, CDK7/Cyclin H/MNAT1 (Homo sapiens). The experiment in a line: Biochemical CDK7 assay (kinact/KIapp) ( CDK7 catalyzed, ATP-dependent, phosphorylation of a peptide substrate derived from RNA Pol II (CDK7/9-tide). Coupled via lactate dehydrogenase (LDH) and pyruvate kinase (PK) to lactate and NAD+ production, with concomitant depletion of NADH. Continuous coupled assay measures CDK7 catalytic activity through the diminished absorbance intensity at 340 nm that corresponds with NADH depletion.). Format: functional.

The target in assay [29] is Cyclin-dependent kinase 6 (Homo sapiens) (UniProt Q00534). The assay can be described thus: Inhibition of CDK6 at 1.0 µM in the ActivX. As to conditions: Compound concentration 1.0 uM.
For assay [30], the target named is Cyclin-dependent kinase 14 (Homo sapiens) (UniProt O94921). The experiment in a line: Inhibition of CDK14 at 1.0 µM in the ActivX. The note with it: Compound concentration 1.0 uM.
Sequence of Cyclin-dependent kinase 14 (Homo sapiens) (O94921 whole entry): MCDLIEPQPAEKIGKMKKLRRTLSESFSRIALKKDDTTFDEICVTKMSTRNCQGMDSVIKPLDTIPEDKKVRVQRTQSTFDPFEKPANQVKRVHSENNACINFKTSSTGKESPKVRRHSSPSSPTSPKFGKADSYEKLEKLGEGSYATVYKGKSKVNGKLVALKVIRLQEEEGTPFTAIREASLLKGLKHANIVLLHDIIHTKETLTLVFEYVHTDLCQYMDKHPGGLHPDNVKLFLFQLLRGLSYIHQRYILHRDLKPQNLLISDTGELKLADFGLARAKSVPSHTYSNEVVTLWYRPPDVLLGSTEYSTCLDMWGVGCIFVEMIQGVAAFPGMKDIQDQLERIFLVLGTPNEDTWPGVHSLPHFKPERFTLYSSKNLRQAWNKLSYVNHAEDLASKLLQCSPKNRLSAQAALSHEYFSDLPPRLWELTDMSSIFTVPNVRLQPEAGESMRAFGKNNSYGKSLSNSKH
The target in assay [31] is Cyclin-dependent kinase 4 (Homo sapiens) (UniProt P11802). The assay can be described thus: % inhibition of CDK4 in the DiscoverX Kinase panel at 1.0 µM. The note with it: Compound concentration 1.0 uM.
Assay [32] deals with Cyclin-dependent kinase 3 (Homo sapiens) (UniProt Q00526). The assay can be described thus: % inhibition of CDK3 in the DiscoverX Kinase panel at 1.0 µM. As to conditions: Compound concentration 1.0 uM.
In assay [33] the target is T3, Cyclin-dependent kinase 11A/B (Homo sapiens). The experiment in a line: % inhibition of CDK11 in the DiscoverX Kinase panel at 1.0 µM. It is filed as protein assay. As to conditions: Compound concentration 1.0 uM.
Assay [34] has as its target Cyclin-dependent kinase 8 (Homo sapiens) (UniProt P49336). The assay can be described thus: % inhibition of CDK8 in the DiscoverX Kinase panel at 1.0 µM. The note with it: Compound concentration 1.0 uM.
Assay [35] shares this target. The experiment in a line: Inhibition of CDK8 at 1.0 µM in the ActivX. The note with it: Compound concentration 1.0 uM.
In assay [36] the target is T1, Cyclin-dependent kinase 7. The assay can be described thus: % inhibition of CDK7 in the DiscoverX Kinase panel at 1.0 µM.
Assay [37] deals with Cyclin-dependent kinase 18 (Homo sapiens) (UniProt Q07002). The experiment in a line: Inhibition of CDK18 at 1.0 µM in the ActivX. As to conditions: Compound concentration 1.0 uM.
Assay [38] deals with Cyclin-dependent kinase 10 (Homo sapiens) (UniProt Q15131). The assay can be described thus: Inhibition of CDK10 at 1.0 µM in the ActivX. As to conditions: Compound concentration 1.0 uM.
In assay [39] the target is Cyclin-dependent kinase 20 (Homo sapiens) (UniProt Q8IZL9). The experiment in a line: Inhibition of CDK20 at 1.0 µM in the ActivX. The note with it: Compound concentration 1.0 uM.
In assay [40] the target is Cyclin-dependent kinase 17 (Homo sapiens) (UniProt Q00537). The experiment in a line: % inhibition of CDK17 in the DiscoverX Kinase panel at 1.0 µM. The note with it: Compound concentration 1.0 uM.
For assay [41], the target named is Cyclin-dependent kinase 13 (Homo sapiens) (UniProt Q14004). The experiment in a line: Inhibition of CDK13 at 1.0 µM in the ActivX. The note with it: Compound concentration 1.0 uM.

The source made the active and inactive calls. The rule behind the calls is not given here.

T1 sequence (P50613 whole entry): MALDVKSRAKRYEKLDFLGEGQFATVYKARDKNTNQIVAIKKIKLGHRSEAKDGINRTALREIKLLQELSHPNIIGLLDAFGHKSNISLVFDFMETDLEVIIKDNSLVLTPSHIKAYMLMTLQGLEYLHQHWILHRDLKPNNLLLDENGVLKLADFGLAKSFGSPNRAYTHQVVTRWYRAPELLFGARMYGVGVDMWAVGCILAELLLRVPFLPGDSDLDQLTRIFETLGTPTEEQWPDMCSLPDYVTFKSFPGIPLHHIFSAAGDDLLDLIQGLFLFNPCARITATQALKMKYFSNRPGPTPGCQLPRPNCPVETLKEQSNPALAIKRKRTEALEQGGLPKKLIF
T2 sequence (P50750 whole entry): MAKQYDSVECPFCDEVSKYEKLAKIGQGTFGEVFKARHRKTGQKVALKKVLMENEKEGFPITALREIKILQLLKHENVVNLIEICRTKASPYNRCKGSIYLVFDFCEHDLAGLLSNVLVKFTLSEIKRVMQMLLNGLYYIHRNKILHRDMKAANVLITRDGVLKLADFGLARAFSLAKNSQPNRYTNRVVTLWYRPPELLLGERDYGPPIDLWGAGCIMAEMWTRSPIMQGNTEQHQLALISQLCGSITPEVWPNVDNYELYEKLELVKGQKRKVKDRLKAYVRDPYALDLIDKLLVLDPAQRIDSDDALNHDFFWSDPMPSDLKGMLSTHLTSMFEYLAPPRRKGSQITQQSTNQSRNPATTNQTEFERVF
Sequence of Cyclin-dependent kinase 16 (Homo sapiens) (Q00536 whole entry): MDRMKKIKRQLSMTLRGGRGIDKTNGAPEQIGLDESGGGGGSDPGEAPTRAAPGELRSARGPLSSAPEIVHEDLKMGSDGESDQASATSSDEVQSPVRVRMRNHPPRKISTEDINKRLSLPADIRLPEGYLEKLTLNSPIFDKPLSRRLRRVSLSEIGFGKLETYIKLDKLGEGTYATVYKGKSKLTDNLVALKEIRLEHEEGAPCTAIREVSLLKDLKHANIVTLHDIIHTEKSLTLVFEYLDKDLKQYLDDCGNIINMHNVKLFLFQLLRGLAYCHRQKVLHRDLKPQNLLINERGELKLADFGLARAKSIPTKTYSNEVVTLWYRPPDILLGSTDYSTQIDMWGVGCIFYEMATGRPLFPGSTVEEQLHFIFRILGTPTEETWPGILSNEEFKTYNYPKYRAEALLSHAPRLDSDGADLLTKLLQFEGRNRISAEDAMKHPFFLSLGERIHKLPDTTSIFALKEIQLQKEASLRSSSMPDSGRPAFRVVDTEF
Sequence of Cyclin-dependent kinase 8 (Homo sapiens) (P49336 whole entry): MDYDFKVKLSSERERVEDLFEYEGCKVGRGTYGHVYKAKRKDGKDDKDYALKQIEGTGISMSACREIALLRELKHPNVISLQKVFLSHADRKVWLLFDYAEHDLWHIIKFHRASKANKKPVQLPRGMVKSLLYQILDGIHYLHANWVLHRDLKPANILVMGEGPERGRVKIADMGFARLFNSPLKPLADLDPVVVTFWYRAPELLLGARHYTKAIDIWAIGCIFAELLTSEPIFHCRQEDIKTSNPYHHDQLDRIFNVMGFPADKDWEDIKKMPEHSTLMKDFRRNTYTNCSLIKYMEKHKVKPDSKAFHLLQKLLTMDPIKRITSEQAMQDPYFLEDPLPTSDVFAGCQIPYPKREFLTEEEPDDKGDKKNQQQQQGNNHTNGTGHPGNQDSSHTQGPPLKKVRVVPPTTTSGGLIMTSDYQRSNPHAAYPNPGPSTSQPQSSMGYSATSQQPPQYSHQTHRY

As for `CC(=O)N1CC(N2CCC(c3cc(C)c4c(c3)Nc3ncnc(N5CCS(=O)(=O)CC5)c3[C@@H](C)O4)CC2)C1`, the figures for the IC50 in [1], in assay [2] and in assay [3] were ~200 nM (not active), > 10000 nM (not active) and > 10000 nM (not active), respectively.

As to `CC#CC(=O)N1CC(N2CCC(c3cc(C)c4c(c3)Nc3ncnc(N5CCS(=O)(=O)CC5)c3[C@@H](C)O4)CC2)C1`, the inhibition (in general, how much of the control response was suppressed) was 95% in [4]; 2% in assay [5]; 45% in assay [6]; 10% in assay [7]; 70% in assay [8]; 1% in [9]. In addition, the inhibition in assay [10] is 25%; in [11], 0%; in [12], 0%; in [13], 15%; in assay [14], 11%; in assay [15], 7%. In addition, the inhibition was 11% in assay [16]; 6% in [17]; 21% in assay [18]; 65% in assay [19]; 5% in [20]; 5% in assay [21]. Besides, the inhibition in assay [22] is 17%; in [23] it was 5%; in assay [24], 5%; in [25] (Compound concentration 1.0 uM), 36%; in assay [26], 12%; in assay [29] it was 0%. The inhibition in assay [30] was 11%; in [31], 10%; in [32] it was 14%; in assay [33], 11%; in assay [34] it was above 2%; in assay [35], 7%. Also, the inhibition is 99% in assay [36] (Compound concentration 1.0 uM); 19% in assay [37]; 3% in assay [38]; 5% in assay [39]; 2% in [40]; 13% in assay [41]. Also, the IC50 (usually the point on the concentration scale where inhibition reaches its midpoint) was 58 nM (active) in assay [2], > 10000 nM (not active) in [3], 933 nM in [25] and 3.8 nM in assay [36]. Moreover, the KIapp in assay [27] is 31 nM. For the same molecule, in assay [28], the kinact/KIapp is 2600 M⁻¹ s⁻¹.

Values taken from ChEMBL document CHEMBL5723588, “Data for DCP probe JNJ-3738” (2024).
